Results taken from US20040127501A1, “Therapeutic agents useful for treating pain” (priority 2002, published 2004).

Molecular target: T1, mGluR5 (Rattus norvegicus, UniProt P31424)
T1 construct: The procedure allows the expression of the mGluR5 receptor by astrocytes; endogenous in cells; host or cells: secondary astrocyte cultures from embryonic (E18) Sprague-Dawley cortex, EGF-treated
Assay: mGluR5 calcium mobilization flux assay in primary astrocytes (Fluo-4, Fluorometric Imaging Plate reader)
Type: cell-based, rat (Sprague-Dawley)
Details: astrocytes expressing mGluR5; calcium mobilization flux with glutamate (final 10 mM); mean of 5 experiments
Description: Cell cultures: Primary glial cultures were prepared from cortices of Sprague-Dawley 18 days old embryos. The cortices were dissected and then dissociated by trituration. The resulting cell homogenate was plated onto poly-D-lysine precoated T175 flasks (BIOCOAT, commercially available from Becton Dickinson and Company Inc. of Franklin Lakes, N.J.) in Dulbecco's Modified Eagle's Medium (“DMEM,” pH 7.4), buffered with 25 mM HEPES, and supplemented with 15% fetal calf serum (“FCS,” commercially available from Hyclone Laboratories Inc. of Omaha, Nebr.), and incubated at 37° C. and 5% CO2. After 24 hours, FCS supplementation was reduced to 10%. […]
Assay Protocol: After 3-5 days incubation with EGF, the astrocytes were washed with 127 mM NaCl, 5 mM KCl, 2 mM MgCl2, […] NaH2PO4, 2 mM CaCl2, 5 mM NaHCO3, 8 mM HEPES, 10 mM Glucose at pH 7.4 (“Assay Buffer”) and loaded with the dye Fluo-4 (commercially available from Molecular Probes Inc. of Eugene, Oreg.) using 0.1 mL of Assay Buffer containing Fluo-4 ([…]). […] The plates containing the astrocytes were then transferred to a Fluorometric Imaging Plate reader (commercially available from Molecular Devices Corporation of Sunnyvale, Calif.) for the assessment of calcium mobilization flux in the presence of glutamate and in the presence or absence of antagonist. […] In each experiment each data point was determined two times.

T1 sequence (P31424 21-1203): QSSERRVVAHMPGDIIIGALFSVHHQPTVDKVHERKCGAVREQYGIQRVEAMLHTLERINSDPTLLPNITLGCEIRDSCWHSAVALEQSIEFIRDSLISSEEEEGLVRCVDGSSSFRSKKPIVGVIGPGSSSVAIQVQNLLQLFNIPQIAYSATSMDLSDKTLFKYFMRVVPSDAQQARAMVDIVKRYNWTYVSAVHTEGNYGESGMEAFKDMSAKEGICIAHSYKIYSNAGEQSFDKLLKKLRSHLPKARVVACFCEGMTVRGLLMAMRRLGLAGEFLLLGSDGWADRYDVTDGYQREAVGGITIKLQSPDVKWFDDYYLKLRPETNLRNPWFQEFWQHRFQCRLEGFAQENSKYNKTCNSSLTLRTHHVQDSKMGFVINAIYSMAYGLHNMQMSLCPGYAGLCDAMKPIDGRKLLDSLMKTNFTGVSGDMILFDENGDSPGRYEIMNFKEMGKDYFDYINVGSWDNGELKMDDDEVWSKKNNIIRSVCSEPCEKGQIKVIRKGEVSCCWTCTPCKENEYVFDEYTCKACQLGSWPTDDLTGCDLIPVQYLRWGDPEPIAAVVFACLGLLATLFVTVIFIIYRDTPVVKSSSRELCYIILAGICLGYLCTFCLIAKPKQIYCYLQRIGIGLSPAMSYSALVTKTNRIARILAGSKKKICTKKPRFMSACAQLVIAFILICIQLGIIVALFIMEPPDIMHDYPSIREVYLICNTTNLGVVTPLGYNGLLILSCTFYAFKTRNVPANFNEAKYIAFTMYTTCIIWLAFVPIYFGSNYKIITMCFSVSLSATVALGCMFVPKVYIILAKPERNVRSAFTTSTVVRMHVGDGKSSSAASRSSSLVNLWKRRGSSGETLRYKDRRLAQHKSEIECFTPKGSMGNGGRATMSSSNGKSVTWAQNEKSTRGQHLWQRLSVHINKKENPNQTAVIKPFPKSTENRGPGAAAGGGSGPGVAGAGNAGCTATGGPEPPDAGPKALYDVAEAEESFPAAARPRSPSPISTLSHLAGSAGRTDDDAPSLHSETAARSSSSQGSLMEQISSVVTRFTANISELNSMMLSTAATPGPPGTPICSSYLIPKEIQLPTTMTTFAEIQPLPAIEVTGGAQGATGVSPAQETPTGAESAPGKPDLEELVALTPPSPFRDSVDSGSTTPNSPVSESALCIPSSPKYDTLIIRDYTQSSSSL

O=C(C#Cc1ccccc1)N1CCN(c2ncccn2)CC1 [Compound AAA(IIa)]
IC50: 555 ± 137 nM
